Test system: 328373-195-R-J1-PDC complex spheroids, viability % test/control
Assay: Anticancer human tumor 328373-195-R-J1-PDC patient-derived head and neck squamous carcinoma cell line growth inhibition [CLK]
Settings: for IC50: curve of first compound; for viability, T/C: stronger effect = lower value
Source text: A high-throughput screen of multi-cell type tumor spheroids was designed to identify active combinations of […] and targeted small molecules. Complex spheroids include a stromal component modeled by human endothelial cells (HUVEC) and fibroblasts modeled by human mesenchymal stem cells (MSCs). The concentration ranges selected for each drug and investigational agent were based upon clinically achievable concentrations if the clinical Cmax of the agent was known.
Compounds. The drugs and investigational agents: cirtuvivint (SM08502; NSC835563), CC-671 (NSC850746), vemurafenib (NSC761431), tapotoclax (NSC804041), sotorasib (NSC818433), adagrasib (NSC831453), MRTX-1133 (NSC836407), BAY2416964 (NSC825713), copanlisib (NSC816437), inavolisib (NSC800729), abemaciclib (NSC768073), osimertinib (NSC779217), entinostat (NSC756642), eltanexor (KPT-8602, NSC794443), venetoclax (NSC766270), ceralasertib (NSC777638), bortezomib (NSC756655), olaparib (NSC753686), talazoparib (NSC767125), alisertib (NSC759677), peposertib (NSC802822), gemcitabine (NSC613327), 5-fluorouracil (NSC19893), SN-38 (NSC673596), oxaliplatin (NSC266046), paclitaxel (NSC125973), and doxorubicin (NSC123127), were obtained from the National Cancer Institute (NCI) Developmental Therapeutics Program Chemical Repository. The FDA-approved anticancer drug set is available from the Developmental Therapeutics Program at https://dtp.cancer.gov/organization/dscb/obtaining/available plates.htm. […] The stock solutions were prepared in dimethyl sulfoxide (DMSO, Sigma-Aldrich, St. Louis, MO, cat. D2650), except for the platinum complexes which were prepared in saline (Quality Biological, Gaithersburg, MD, cat. 114-055-101), at 800-fold the tested concentration and stored at -70 degrees C prior to their use. All drugs and investigational agents were tested over a range starting from a high concentration at or near the clinical Cmax and decreasing in half-log increments. If the clinical Cmax for an agent had not been determined, the highest concentration tested was 10 microM.
Cell Culture. All cells were maintained in an incubator at 37 degrees C and 5% CO2 with 95% humidity. The PDC lines were cultured according to standard operating procedures established by the NCI PDMR. Briefly, all PDCs were thawed and cultured in Matrigel-coated flasks prepared with a working solution of 1X Ham's F-12 nutrient mix, without supplementation (Invitrogen, Waltham, MA, cat. 11765054), 100 U/mL penicillin-streptomycin (Invitrogen, cat. 15140122), and 2.5% Matrigel (Corning Inc., Corning, NY, cat. 354248) for the first three passages. The 947758-054-R-J2-PDC line was cultured in 6B/Colon 1A media, which includes advanced DMEM/F-12 (Thermo Fisher Scientific, cat. 12634028), 10 mM HEPES (Thermo Fisher Scientific, cat. 15630080), 1X GlutaMAX supplement (Thermo Fisher Scientific, cat. 35050061), 0.1 mg/mL primocin (InvivoGen, cat. ant-pm-2), 10% defined fetal bovine serum, heat inactivated (HyClone Laboratories Inc., cat. SH30070.03HI), 1.25 mM N-Acetyl-L-cysteine (Sigma-Aldrich, cat. A9165), 10 mM nicotinamide (Sigma-Aldrich, cat. N0636), 1X B-27 supplement (Thermo Fisher Scientific, cat. 17504044), 1X N-2 supplement (Thermo Fisher Scientific, cat. 17502048), and 10 microM Y-27632 dihydrochloride (Tocris Bioscience, cat. 1254). The 876862-298-R-J1-PDC was cultured in 6E media, which includes all 6B/Colon 1A media components plus 50% L-WRN conditioned media (ATCC, cat. CRL-3276), 50 ng/mL recombinant human EGF recombinant protein (hEGF; Thermo Fisher Scientific, cat. PHG0311), 10 ng/mL recombinant human fibroblast growth factor 10 (hGFG-10; PeproTech, cat. 100-26), 1 ng/mL recombinant human fibroblast growth factor 2 (hFGF-2; PeproTech, cat. 100-18B), and 1 µM prostaglandin E2 (PGE2; Tocris, cat. 2296). The 227483-062-R1-J1-PDC line was cultured in Panc media, containing all 6E components except hFGF-2, with the addition of 500 nM SB-431542 (Selleckchem, cat. S1067) and 10 nM gastrin (Tocris, cat. 3006). […]
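Also: spheroids exposed to the agents for 7 days.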

`C=CC(=O)Nc1cc(Nc2nccc(-c3cn(C)c4ccccc34)n2)c(OC)cc1N(C)CCN(C)C` + CNC(=O)c1ccc(Nc2nc(OC3CCCC3)c3c(-c4ccc5nc(C)oc5c4)c[nH]c3n2)c(OC)c1 gave an IC50 (second compound 0.0316 µM) of 39.4 nM, an IC50 (second compound 0.1 µM) of less than 0.949 nM and an IC50 (second compound 0.316 µM) of less than 0.949 nM. It also gave an IC50 (second compound 1 µM) of less than 0.949 nM, an IC50 (second compound 3.16 µM) of less than 0.949 nM and an IC50 (second compound 10 µM) of less than 0.949 nM. It also gave a viability, T/C (second compound 0.0316 µM, first compound 0.000949 µM) of 53.9%, a viability, T/C (second compound 0.0316 µM, first compound 0.003 µM) of 60.2% and a viability, T/C (second compound 0.0316 µM, first compound 0.00949 µM) of 57.1%. For the same molecule, the viability, T/C (second compound 0.0316 µM, first compound 0.03 µM) was 50.1%, the viability, T/C (second compound 0.0316 µM, first compound 0.0949 µM) was 44% and the viability, T/C (second compound 0.0316 µM, first compound 0.3 µM) was 28.7%. For the same molecule, the viability, T/C (second compound 0.1 µM, first compound 0.000949 µM) was 12.7%, the viability, T/C (second compound 0.1 µM, first compound 0.003 µM) was 11.5% and the viability, T/C (second compound 0.1 µM, first compound 0.00949 µM) was 10%. The viability, T/C (second compound 0.1 µM, first compound 0.03 µM) was 10.6%, the viability, T/C (second compound 0.1 µM, first compound 0.0949 µM) was 6.8% and the viability, T/C (second compound 0.1 µM, first compound 0.3 µM) was 4.77%. It also gave a viability, T/C (second compound 0.316 µM, first compound 0.000949 µM) of 10.9%, a viability, T/C (second compound 0.316 µM, first compound 0.003 µM) of 9.46% and a viability, T/C (second compound 0.316 µM, first compound 0.00949 µM) of 9.6%. For the same molecule, the viability, T/C (second compound 0.316 µM, first compound 0.03 µM) was 11.1%, the viability, T/C (second compound 0.316 µM, first compound 0.0949 µM) was 7.49% and the viability, T/C (second compound 0.316 µM, first compound 0.3 µM) was 5.37%. It also gave a viability, T/C (second compound 1 µM, first compound 0.000949 µM) of 9.22%, a viability, T/C (second compound 1 µM, first compound 0.003 µM) of 11.8% and a viability, T/C (second compound 1 µM, first compound 0.00949 µM) of 9.93%. The viability, T/C (second compound 1 µM, first compound 0.03 µM) was 9.14%, the viability, T/C (second compound 1 µM, first compound 0.0949 µM) was 7.31% and the viability, T/C (second compound 1 µM, first compound 0.3 µM) was 3.84%. It also gave a viability, T/C (second compound 3.16 µM, first compound 0.000949 µM) of 10.8%, a viability, T/C (second compound 3.16 µM, first compound 0.003 µM) of 9.2% and a viability, T/C (second compound 3.16 µM, first compound 0.00949 µM) of 10.8%. It also gave a viability, T/C (second compound 3.16 µM, first compound 0.03 µM) of 10.1%, a viability, T/C (second compound 3.16 µM, first compound 0.0949 µM) of 8.03% and a viability, T/C (second compound 3.16 µM, first compound 0.3 µM) of 3.03%. The viability, T/C (second compound 10 µM, first compound 0.000949 µM) was 12%, the viability, T/C (second compound 10 µM, first compound 0.003 µM) was 10.6% and the viability, T/C (second compound 10 µM, first compound 0.00949 µM) was 11.6%. The viability, T/C (second compound 10 µM, first compound 0.03 µM) was 11.5%, the viability, T/C (second compound 10 µM, first compound 0.0949 µM) was 9.82% and the viability, T/C (second compound 10 µM, first compound 0.3 µM) was 3.85%.

`COc1c(OCCCN2CCOCC2)ccc2c3n(c(=NC(=O)c4cnc(N)nc4)nc12)CCN3` + CN1CCN(c2cc(C(=O)Nc3cc4cc(-c5cnn(C)c5)ccc4cn3)ccn2)CC1 was tested, and the IC50 (second compound 0.0316 µM) was 126 nM, the IC50 (second compound 0.1 µM) was 79.9 nM and the IC50 (second compound 0.316 µM) was less than 3.16 nM. The IC50 (second compound 1 µM) was less than 3.16 nM, the IC50 (second compound 3.16 µM) was less than 3.16 nM and the IC50 (second compound 10 µM) was less than 3.16 nM. The viability, T/C (second compound 0.0316 µM, first compound 0.00316 µM) was 95.8%, the viability, T/C (second compound 0.0316 µM, first compound 0.01 µM) was 93.9% and the viability, T/C (second compound 0.0316 µM, first compound 0.0316 µM) was 77.9%. The viability, T/C (second compound 0.0316 µM, first compound 0.1 µM) was 52.7%, the viability, T/C (second compound 0.0316 µM, first compound 0.316 µM) was 31.9% and the viability, T/C (second compound 0.0316 µM, first compound 1 µM) was 9.52%. The viability, T/C (second compound 0.1 µM, first compound 0.00316 µM) was 71.7%, the viability, T/C (second compound 0.1 µM, first compound 0.01 µM) was 77.8% and the viability, T/C (second compound 0.1 µM, first compound 0.0316 µM) was 63.5%. The viability, T/C (second compound 0.1 µM, first compound 0.1 µM) was 46.4%, the viability, T/C (second compound 0.1 µM, first compound 0.316 µM) was 23.2% and the viability, T/C (second compound 0.1 µM, first compound 1 µM) was 10.4%. The viability, T/C (second compound 0.316 µM, first compound 0.00316 µM) was 32.5%, the viability, T/C (second compound 0.316 µM, first compound 0.01 µM) was 35.3% and the viability, T/C (second compound 0.316 µM, first compound 0.0316 µM) was 20.4%. For the same molecule, the viability, T/C (second compound 0.316 µM, first compound 0.1 µM) was 17.1%, the viability, T/C (second compound 0.316 µM, first compound 0.316 µM) was 7.35% and the viability, T/C (second compound 0.316 µM, first compound 1 µM) was 4.17%. The viability, T/C (second compound 1 µM, first compound 0.00316 µM) was 0.2%, the viability, T/C (second compound 1 µM, first compound 0.01 µM) was 1.02% and the viability, T/C (second compound 1 µM, first compound 0.0316 µM) was 0.29%. The viability, T/C (second compound 1 µM, first compound 0.1 µM) was 0.33%, the viability, T/C (second compound 1 µM, first compound 0.316 µM) was 0.18% and the viability, T/C (second compound 1 µM, first compound 1 µM) was 4.25%. The viability, T/C (second compound 3.16 µM, first compound 0.00316 µM) was 0.08%, the viability, T/C (second compound 3.16 µM, first compound 0.01 µM) was 3.15% and the viability, T/C (second compound 3.16 µM, first compound 0.0316 µM) was 0.9%. It also gave a viability, T/C (second compound 3.16 µM, first compound 0.1 µM) of 0.09%, a viability, T/C (second compound 3.16 µM, first compound 0.316 µM) of 2.94% and a viability, T/C (second compound 3.16 µM, first compound 1 µM) of 0.12%. The viability, T/C (second compound 10 µM, first compound 0.00316 µM) was 0.62%, the viability, T/C (second compound 10 µM, first compound 0.01 µM) was 2.77% and the viability, T/C (second compound 10 µM, first compound 0.0316 µM) was 0.15%. For the same molecule, the viability, T/C (second compound 10 µM, first compound 0.1 µM) was 0.14%, the viability, T/C (second compound 10 µM, first compound 0.316 µM) was 1.52% and the viability, T/C (second compound 10 µM, first compound 1 µM) was 1.72%.
